The assay has as its target FGFR1 (Homo sapiens, UniProt P11362). The assay is described as follows: FGFR1 Bioassay (in vitro kinase activity, ELISA). It counts as biochemical. The note with it: purified GST-FGFR1, poly(Glu-Tyr) substrate, read-out: FGFR IC50. The protocol:
This assay is used to measure the in vitro kinase activity of FGF1-R in an ELISA assay.
1. Costar 96-well ELISA plates (Corning Catalog # 3369).
2. Poly(Glu-Tyr) (Sigma Catalog # P0275).
4. 50 mM Hepes Buffer Solution.
5. Blocking Buffer (5% BSA/PBS).
6. Purified GST-FGFR1 (SUGEN, Inc.)
7. Kinase Dilution Buffer.
Mix 500 μl 1M Hepes (GIBCO), 20 μl 5% BSA/PBS, 10 μl 100 mM sodium orthovanadate and 50 μl 5M NaCl.
9. ATP/MnCl2 phosphorylation mix: mix 20 μL ATP, 400 μL 1 M MnCl2 and 9.56 ml dH2O.
10. NUNC 96-well V bottom polypropylene plates (Applied Scientific Catalog # AS-72092).
Add 500 μL TWEEN to 1 liter TBS.
13. Rabbit polyclonal anti-phosphotyrosine serum (SUGEN, Inc.).
14. Goat anti-rabbit IgG peroxidase conjugate (Biosource, Catalog # ALI0404).
1. Coat Costar 96 well ELISA plates with 1 μg per well Poly(Glu-Tyr) in 100 μl PBS. Store overnight at 4° C.
2. Wash coated plates once with PBS.
3. Add 150 μL of 5% BSA/PBS Blocking Buffer to each well. Incubate, with shaking, for 1 hr at room temperature.
4. Wash plate 2× with PBS, then once with 50 mM Hepes. Pat plates on a paper towel to remove excess liquid and bubbles.
5. Add 25 μL of 0.4 mM test compound in 4% DMSO or 4% DMSO alone (controls) to plate.
6. Dilute purified GST-FGFR1 in Kinase Dilution Buffer (5 ng kinase/50 ul KDB/well).
7. Add 50 μL of diluted kinase to each well.
8. Start kinase reaction by adding 25 μl/well of freshly prepared ATP/Mn++ (0.4 ml 1M MnCl2, 40 μL 10 mM ATP, 9.56 ml dH2O), freshly prepared).
9. Stop reaction with 25 μL of 0.5M EDTA.
10. Wash plate 4× with fresh TBST.
11. Make up Antibody Dilution Buffer: For 50 ml, mix 5 ml of 5% BSA, 250 μl of 5% milk and 50 μl of 100 mM sodium vanadate, bring to final volume with 0.05% TBST.
12. Add 100 μl per well of anti-phosphotyrosine (1:10000 dilution in ADB). Incubate, with shaking for 1 hr. at room temperature.
14. Add 100 μl per well of Biosource Goat anti-rabbit IgG peroxidase conjugate (1:6000 dilution in ADB). Incubate, with shaking for 1 hr. at room temperature.
15. Wash as in step 10 and then with PBS to remove bubbles and excess TWEEN.
16. Add 100 μl of ABTS/H2O2 solution to each well.
17. Incubate, with shaking, for 10 to 20 minutes. Remove any bubbles.
18. Read assay on Dynatech MR7000 ELISA reader: test filter at 410 nM, reference filter at 630 nM.
For orientation: In an ELISA, binding on a coated surface is turned into a signal by an enzyme label.

23 compounds from patent US7105562B2, “Geometrically restricted 3-cyclopentylidene-1,3-dihydroindol-2-ones as potent protein tyrosine kinase inhibitors” (Sugen, Inc., priority 2003, dated 2006) can be followed below.

SMILES strings stand for the structures. pIC50: −log10 of the molar value. Where only a bound is given, the exact number is not on record here.

Sequence of FGFR1 (P11362 22-822, species assumed): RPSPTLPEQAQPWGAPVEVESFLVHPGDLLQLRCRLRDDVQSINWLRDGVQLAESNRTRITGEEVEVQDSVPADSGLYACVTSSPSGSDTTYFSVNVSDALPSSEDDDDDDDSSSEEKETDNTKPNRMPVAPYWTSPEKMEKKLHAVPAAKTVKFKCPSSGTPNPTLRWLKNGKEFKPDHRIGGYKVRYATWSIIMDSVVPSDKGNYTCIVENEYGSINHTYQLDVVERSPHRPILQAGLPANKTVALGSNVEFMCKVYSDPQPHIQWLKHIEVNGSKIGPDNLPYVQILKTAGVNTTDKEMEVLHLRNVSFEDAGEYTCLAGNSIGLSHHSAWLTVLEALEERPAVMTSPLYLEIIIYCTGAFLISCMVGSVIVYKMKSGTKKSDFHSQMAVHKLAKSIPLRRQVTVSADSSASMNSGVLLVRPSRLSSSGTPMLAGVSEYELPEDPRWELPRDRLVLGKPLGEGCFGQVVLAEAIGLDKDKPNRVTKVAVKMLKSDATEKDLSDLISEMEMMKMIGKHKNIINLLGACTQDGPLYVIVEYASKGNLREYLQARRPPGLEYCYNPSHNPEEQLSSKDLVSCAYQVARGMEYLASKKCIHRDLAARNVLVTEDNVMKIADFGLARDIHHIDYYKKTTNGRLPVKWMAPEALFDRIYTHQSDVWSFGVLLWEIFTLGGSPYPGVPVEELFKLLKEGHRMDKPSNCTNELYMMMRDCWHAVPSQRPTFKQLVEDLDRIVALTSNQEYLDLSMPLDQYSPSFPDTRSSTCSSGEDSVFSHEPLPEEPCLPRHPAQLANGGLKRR

What is called pIC50 is the IC50 on a negative log10 scale, so that one unit is a factor of ten. As for `CNS(=O)(=O)c1ccc2c(c1)/C(=C1\CCc3c1[nH]c(C)c3C(=O)N1CCCC1CN1CCCC1)C(=O)N2` (stereo in doubt) [Example 13, 3-[2-Methyl-3-((R)-2-pyrrolidin-1-ylmethyl-pyrrolidine-1-carbonyl)-4,5-dihydro-1H-cyclopenta[b]pyrrol-(6Z)-ylidene]-2-oxo-2,3-dihydro-1H-indole-5-sulfonic acid methylamide], the pIC50 was 7.82. In the case of `CCOC(=O)c1c(C)[nH]c2c1CC/C2=C1/C(=O)Nc2ccccc21` [Example 1, 2-Methyl-6-[2-oxo-1,2-dihydro-indol-(3Z)-ylidene]-1,4,5,6-tetrahydro-cyclopenta[b]pyrrole-3-carboxylic acid ethyl ester] it was 7.10; in that of `CCOC(=O)c1c(C)[nH]c2c1CC/C2=C1/C(=O)Nc2ccc(S(=O)(=O)Cc3c(Cl)cccc3Cl)cc21` [Example 2, 6-[5-(2,6-Dichloro-phenylmethanesulfonyl)-2-oxo-1,2-dihydro-indol-(3Z)-ylidene]-2-methyl-1,4,5,6-tetrahydro-cyclopenta[b]pyrrole-3-carboxylic acid ethyl ester], 5.60. `CCOC(=O)c1c(C)[nH]c2c1CC/C2=C1/C(=O)Nc2ccc(S(=O)(=O)NC)cc21` [Example 3, 2-Methyl-6-[5-methylsulfamoyl-2-oxo-1,2-dihydro-indol-(3Z)-ylidene]-1,4,5,6-tetrahydro-cyclopenta[b]pyrrole-3-carboxylic acid ethyl ester]: the pIC50 is 6.22.

Regarding `CNS(=O)(=O)c1ccc2c(c1)/C(=C1\CCc3cc(C)[nH]c31)C(=O)N2` [Example 4, 3-[2-Methyl-4,5-dihydro-1H-cyclopenta[b]pyrrol-(6Z)-ylidene]-2-oxo-2,3-dihydro-1H-indole-5-sulfonic acid methylamide], the pIC50 is 7.60. The value for `CNS(=O)(=O)c1ccc2c(c1)/C(=C1\CCc3c1[nH]c(C)c3C(=O)O)C(=O)N2` [Example 5, 2-Methyl-6-[5-methylsulfamoyl-2-oxo-1,2-dihydro-indol-(3Z)-ylidene]-1,4,5,6-tetrahydro-cyclopenta[b]pyrrole-3-carboxylic acid] was 7.66; that for `CCOC(=O)c1c(C)[nH]c2c1CC/C2=C1/C(=O)Nc2ccc(S(C)(=O)=O)cc21` [Example 6, 6-[5-Methanesulfonyl-2-oxo-1,2-dihydro-indol-(3Z)-ylidene]-2-methyl-1,4,5,6-tetrahydro-cyclopenta[b]pyrrole-3-carboxylic acid ethyl ester] was 4.84.

With `CCOC(=O)c1c(C)[nH]c2c1CC/C2=C1/C(=O)Nc2ccc(S(=O)(=O)N(C)C)cc21` [Example 7, 6-[5-Dimethylsulfamoyl-2-oxo-1,2-dihydro-indol-(3Z)-ylidene]-2-methyl-1,4,5,6-tetrahydro-cyclopenta[b]pyrrole-3-carboxylic acid ethyl ester], the pIC50 was less than 4.70. As for `CCOC(=O)c1c(C)[nH]c2c1CC/C2=C1/C(=O)Nc2ccc(S(=O)(=O)NC(C)C)cc21` [Example 8, 6-[5-Isopropylsulfamoyl-2-oxo-1,2-dihydro-indol-(3Z)-ylidene]-2-methyl-1,4,5,6-tetrahydro-cyclopenta[b] pyrrole-3-carboxylic acid ethyl ester], the pIC50 was less than 4.70. In the case of `CCOC(=O)c1c(C)[nH]c2c1CC/C2=C1/C(=O)Nc2ccc(S(=O)(=O)CC)cc21` [Example 9, 6-[5-Ethanesulfonyl-2-oxo-1,2-dihydro-indol-(3Z)-ylidene]-2-methyl-1,4,5,6-tetrahydro-cyclopenta[b]pyrrole-3-carboxylic acid ethyl ester] it was 6.28; in that of `CNS(=O)(=O)c1ccc2c(c1)/C(=C1\CCc3c1[nH]c(C)c3C(=O)NCC(O)CN1CCCC1)C(=O)N2` (centres unmarked) [Example 10, 2-Methyl-6-[5-methylsulfamoyl-2-oxo-1,2-dihydro-indol-(3Z)-ylidene]-1,4,5,6-tetrahydro-cyclopenta[b]pyrrole-3-carboxylic acid (2-hydroxy-3-pyrrolidin-1-yl-propyl)-amide], greater than 7.74. The value for `CNS(=O)(=O)c1ccc2c(c1)/C(=C1\CCc3c1[nH]c(C)c3C(=O)NCC(O)CNC1CC1)C(=O)N2` (centres unmarked) [Example 11, 2-Methyl-6-[5-methylsulfamoyl-2-oxo-1,2-dihydro-indol-(3Z)-ylidene]-1,4,5,6-tetrahydro-cyclopenta[b]pyrrole-3-carboxylic acid (3-cyclopropylamino-2-hydroxy-propyl)-amide] was 7.70. As for `CNS(=O)(=O)c1ccc2c(c1)/C(=C1\CCc3c1[nH]c(C)c3C(=O)NCCN(C)C)C(=O)N2` [Example 12, 2-Methyl-6-[5-methylsulfamoyl-2-oxo-1,2-dihydro-indol-(3Z)-ylidene]-1,4,5,6-tetrahydro-cyclopenta[b]pyrrole-3-carboxylic acid (2-dimethylamino-ethyl)-amide], the pIC50 was 7.77. With `CCOC(=O)c1c(C)[nH]c2c1CC/C2=C1/C(=O)Nc2ccc(S(N)(=O)=O)cc21` [Example 14, 2-Methyl-6-[2-oxo-5-sulfamoyl-1,2-dihydro-indol-(3Z)-ylidene]-1,4,5,6-tetrahydro-cyclopenta[b]pyrrole-3-carboxylic acid ethyl ester], the pIC50 was 7.00.

Turning to `CNS(=O)(=O)c1ccc2c(c1)C(=C1CCCC1)C(=O)N2` [Example 15, 3-Cyclopentylidene-2-oxo-2,3-dihydro-1H-indole-5-sulfonic acid methylamide], the pIC50 was less than 4.70. The value for `CNS(=O)(=O)c1ccc2c(c1)/C(=C1\CCc3c1[nH]c(C)c3S(C)(=O)=O)C(=O)N2` [Example 16, 3-[3-Methanesulfonyl-2-methyl-4,5-dihydro-1H-cyclopenta[b]pyrrol-(6Z)-ylidene]-2-oxo-2,3-dihydro-1H-indole-5-sulfonic acid methylamide] was 7.82. In the case of `CNS(=O)(=O)c1ccc2c(c1)/C(=C1\CC(CC(=O)O)c3cc(OC)ccc31)C(=O)N2` (centres unmarked) [Example 17, {6-Methoxy-3-[5-methylsulfamoyl-2-oxo-1,2-dihydro-indol-(3Z)-ylidene]-indan-1-yl}-acetic acid], the pIC50 was 7.40.

As to `Cc1[nH]c2c(c1C(=O)N1CCC[C@H]1CN1CCCC1)CC/C2=C1/C(=O)Nc2ccc(F)cc21` [Example 18, 5-Fluoro-3-[2-methyl-3-((S)-2-pyrrolidin-1-ylmethyl-pyrrolidine-1-carbonyl)-4,5-dihydro-1H-cyclopenta[b]pyrrol-(6Z)-ylidene]-1,3-dihydro-indol-2-one], the pIC50 is 7.10.

`COc1ccc2c(c1)NC(=O)/C2=C1/CCc2c1[nH]c(C)c2C(=O)N1CCC[C@H]1CN1CCCC1` [Example 19, 6-Methoxy-3-[2-methyl-3-((S)-2-pyrrolidin-1-ylmethyl-pyrrolidine-1-carbonyl)-4,5-dihydro-1H-cyclopenta[b]pyrrol-(6Z)-ylidene]-1,3-dihydro-indol-2-one]: the pIC50 is 6.68. The value for `COc1ccccc1-c1ccc2c(c1)NC(=O)/C2=C1/CCc2c1[nH]c(C)c2C(=O)N1CCC[C@H]1CN1CCCC1` [Example 20] was 6.32; that for `Cc1[nH]c2c(c1C(=O)N1CCC[C@H]1CN1CCCC1)CC/C2=C1/C(=O)Nc2c(Cl)cccc21` [Example 21, 7-Chloro-3-[2-methyl-3-((S)-2-pyrrolidin-1-ylmethyl-pyrrolidine-1-carbonyl)-4,5-dihydro-1H-cyclopenta[b]pyrrol-(6Z)-ylidene]-1,3-dihydro-indol-2-one] was 5.72. In the case of `Cc1[nH]c2c(c1C(=O)N1CCC[C@H]1CN1CCCC1)CC/C2=C1/C(=O)Nc2ncccc21` [Example 22, 3-[2-Methyl-3-((S)-2-pyrrolidin-1-ylmethyl-pyrrolidine-1-carbonyl)-4,5-dihydro-1H-cyclopenta[b]pyrrol-(6Z)-ylidene]-1,3-dihydro-pyrrolo[2,3-b]pyridin-2-one] it was 5.68; in that of `COc1ccc(-c2ccc3c(c2)NC(=O)/C3=C2/CCc3c2[nH]c(C)c3C(=O)N2CCC[C@H]2CN2CCCC2)cc1` [Example 23, 6-(4-Methoxy-phenyl)-3-[2-methyl-3-((S)-2-pyrrolidin-1-ylmethyl-pyrrolidine-1-carbonyl)-4,5-dihydro-1H-cyclopenta[b]pyrrol-(6Z)-ylidene]-1,3-dihydro-indol-2-one], 6.64.
